Results reported in ChEMBL document CHEMBL1133079, “Synthesis and antibacterial activity of novel 6-O-substituted erythromycin A derivatives” (2000).
≈ marks a conversion by molar mass, not a printed value.

Key:
Streptococcus pneumoniae [1] = experiment: In vitro minimum inhibitory concentration against Streptococcus pneumoniae 5649.; assay type: functional
Haemophilus influenzae = experiment: In vitro minimum inhibitory concentration against Haemophilus influenzae DILL using standard agar dilution method; assay type: functional
Streptococcus pyogenes [2] = experiment: In vitro minimum inhibitory concentration against Streptococcus pyogenes 930 using standard agar dilution method; assay type: functional
Streptococcus pneumoniae [3] = experiment: In vitro minimum inhibitory concentration against Streptococcus pneumoniae 5737.; assay type: functional
Staphylococcus aureus [4] = experiment: In vitro minimum inhibitory concentration against Staphylococcus aureus A5177.; assay type: functional
Streptococcus pyogenes [5] = experiment: In vitro minimum inhibitory concentration against Streptococcus pyogenes EES61 using standard agar dilution method; assay type: functional
Streptococcus pyogenes [6] = experiment: In vitro minimum inhibitory concentration against Streptococcus pyogenes PIU 2548 using standard agar dilution method; assay type: functional
Staphylococcus aureus [7] = experiment: In vitro minimum inhibitory concentration against Staphylococcus aureus 6538P using standard agar dilution method; assay type: functional
Streptococcus pneumoniae [8] = experiment: In vitro minimum inhibitory concentration against Streptococcus pneumoniae ATCC 6303.; assay type: functional
Staphylococcus aureus [9] = experiment: In vitro minimum inhibitory concentration against Staphylococcus aureus A5177 using standard agar dilution method; assay type: functional
Staphylococcus aureus [10] = experiment: In vitro minimum inhibitory concentration against Staphylococcus aureus 6538P using standard agar dilution method

Row | Compound | MIC (Streptococcus pneumoniae [1]) [µg/mL] | MIC (Haemophilus influenzae) [µg/mL] | MIC (Streptococcus pyogenes [2]) [µg/mL] | MIC (Streptococcus pneumoniae [3]) [µg/mL] | MIC (Staphylococcus aureus [4]) [µg/mL] | MIC (Streptococcus pyogenes [5]) [µg/mL] | MIC (Streptococcus pyogenes [6]) [µg/mL] | MIC (Staphylococcus aureus [7]) [µg/mL] | MIC (Streptococcus pneumoniae [8]) [µg/mL] | MIC (Staphylococcus aureus [9]) [µg/mL] | MIC (Staphylococcus aureus [10]) [µg/mL]
1 | CC[C@H]1OC(=O)[C@H](C)[C@@H](O[C@H]2C[C@@](C)(OC)[C@@H](O)[C@H](C)O2)[C@H](C)[C@@H](O[C@@H]2O[C@H](C)C[C@H](N(C)C)[C@H]2O)[C@@](C)(OC/C=C/c2ccccc2)C[C@@H](C)C(=O)[C@H](C)[C@@H](O)[C@]1(C)O | 4 (≈ 4.71 µM) | 4 (≈ 4.71 µM) | 32 (≈ 37.6 µM) | 32 (≈ 37.6 µM) | 6.2 (≈ 7.29 µM) | 0.03 (≈ 0.0353 µM) | 16 (≈ 18.8 µM) | 0.39 (≈ 0.459 µM) | 0.06 (≈ 0.0706 µM) | – | –
2 | CC[C@H]1OC(=O)[C@H](C)[C@@H](O[C@H]2C[C@@](C)(OC)[C@@H](O)[C@H](C)O2)[C@H](C)[C@@H](O[C@@H]2O[C@H](C)C[C@H](N(C)C)[C@H]2O)[C@@](C)(OCCO)C[C@@H](C)C(=O)[C@H](C)[C@@H](O)[C@]1(C)O | 32 (≈ 41.1 µM) | 8 (≈ 10.3 µM) | > 64 | > 64 | 6.2 (≈ 7.97 µM) | 0.125 (≈ 0.161 µM) | 64 (≈ 82.3 µM) | 0.39 (≈ 0.501 µM) | 0.125 (≈ 0.161 µM) | – | –
3 | CC[C@H]1OC(=O)[C@H](C)[C@@H](O[C@H]2C[C@@](C)(OC)[C@@H](O)[C@H](C)O2)[C@H](C)[C@@H](O[C@@H]2O[C@H](C)C[C@H](N(C)C)[C@H]2O)[C@@](C)(OC/C=C/c2cccc3ccccc23)C[C@@H](C)C(=O)[C@H](C)[C@@H](O)[C@]1(C)O | 16 (≈ 17.8 µM) | 4 (≈ 4.44 µM) | 8 (≈ 8.89 µM) | 8 (≈ 8.89 µM) | 12.5 (≈ 13.9 µM) | 0.06 (≈ 0.0667 µM) | 8 (≈ 8.89 µM) | 0.78 (≈ 0.867 µM) | 0.25 (≈ 0.278 µM) | – | –
4 | CC[C@H]1OC(=O)[C@H](C)[C@@H](O[C@H]2C[C@@](C)(OC)[C@@H](O)[C@H](C)O2)[C@H](C)[C@@H](O[C@@H]2O[C@H](C)C[C@H](N(C)C)[C@H]2O)[C@@](C)(OC/C=N/NC)C[C@@H](C)C(=O)[C@H](C)[C@@H](O)[C@]1(C)O | 64 (≈ 79.6 µM) | 8 (≈ 9.95 µM) | > 128 | > 128 | 25 (≈ 31.1 µM) | 0.06 (≈ 0.0746 µM) | 128 (≈ 159 µM) | 0.78 (≈ 0.97 µM) | 0.125 (≈ 0.155 µM) | – | –
5 | CCCO[C@@]1(C)C[C@@H](C)C(=O)[C@H](C)[C@@H](O)[C@](C)(O)[C@@H](CC)OC(=O)[C@H](C)[C@@H](O[C@H]2C[C@@](C)(OC)[C@@H](O)[C@H](C)O2)[C@H](C)[C@H]1O[C@@H]1O[C@H](C)C[C@H](N(C)C)[C@H]1O | – | 32 (≈ 41.2 µM) | > 128 | – | – | 0.05 (≈ 0.0644 µM) | 64 (≈ 82.5 µM) | – | – | 25 (≈ 32.2 µM) | 3.1 (≈ 3.99 µM)
6 | CC[C@H]1OC(=O)[C@H](C)[C@@H](O[C@H]2C[C@@](C)(OC)[C@@H](O)[C@H](C)O2)[C@H](C)[C@@H](O[C@@H]2O[C@H](C)C[C@H](N(C)C)[C@H]2O)[C@@](C)(OCCNCCc2ccccc2)C[C@@H](C)C(=O)[C@H](C)[C@@H](O)[C@]1(C)O | 4 (≈ 4.54 µM) | 2 (≈ 2.27 µM) | 64 (≈ 72.6 µM) | 64 (≈ 72.6 µM) | 12.5 (≈ 14.2 µM) | 0.015 (≈ 0.017 µM) | 8 (≈ 9.08 µM) | 0.2 (≈ 0.227 µM) | 0.03 (≈ 0.034 µM) | – | –
7 | CC[C@H]1OC(=O)C(C)[C@@H](O[C@H]2C[C@@](C)(OC)[C@@H](O)[C@H](C)O2)[C@H](C)[C@@H](O[C@@H]2O[C@H](C)C[C@H](N(C)C)[C@H]2O)[C@@](C)(OC/C=N/Oc2ccccc2)C[C@@H](C)C(=O)[C@H](C)[C@@H](O)[C@]1(C)O (single isomer, unassigned) | 16 (≈ 18.5 µM) | 4 (≈ 4.61 µM) | 128 (≈ 148 µM) | 128 (≈ 148 µM) | 3.1 (≈ 3.58 µM) | 0.008 (≈ 0.00923 µM) | 32 (≈ 36.9 µM) | 0.2 (≈ 0.231 µM) | 0.008 (≈ 0.00923 µM) | – | –
8 | CC[C@H]1OC(=O)[C@H](C)[C@@H](O[C@H]2C[C@@](C)(OC)[C@@H](O)[C@H](C)O2)[C@H](C)[C@@H](O[C@@H]2O[C@H](C)C[C@H](N(C)C)[C@H]2O)[C@](C)(OC)C[C@@H](C)C(=O)[C@H](C)[C@@H](O)[C@]1(C)O [CLARITHROMYCIN] | 16 (≈ 21.4 µM) | 8 (≈ 10.7 µM) | > 128 | > 128 | 6.2 (≈ 8.29 µM) | 0.03 (≈ 0.0401 µM) | 32 (≈ 42.8 µM) | 0.2 (≈ 0.267 µM) | 0.06 (≈ 0.0802 µM) | – | –
9 | CC[C@H]1OC(=O)[C@H](C)[C@@H](O[C@H]2C[C@@](C)(OC)[C@@H](O)[C@H](C)O2)[C@H](C)[C@@H](O[C@@H]2O[C@H](C)C[C@H](N(C)C)[C@H]2O)[C@](C)(O)C[C@@H](C)C(=O)[C@H](C)[C@@H](O)[C@]1(C)O [ERYTHROMYCIN] | 16 (≈ 21.8 µM) | 4 (≈ 5.45 µM) | > 128 | > 128 | 6.2 (≈ 8.45 µM) | 0.03 (≈ 0.0409 µM) | 32 (≈ 43.6 µM) | 0.2 (≈ 0.273 µM) | 0.06 (≈ 0.0818 µM) | – | –
